In US8815828B2, “Therapeutic combinations for use in neoplasia” (University of Florida Research Foundation, Inc., priority 2008, dated 2014):
Where two headings read alike, the source gives them in different places.

Tests used:
[1] = system: MDA-MB468 and MDA-MB-231 human breast cancer cell lines; assay: Cytotoxicity by clonogenic assay (FIG. 4 legend), MDA-MB468 and MDA-MB-231 stated jointly; assay type: cell-based; settings: MDA-MB468 and MDA-MB-231 cell lines, one value for both; read-out: IC50, agent alone
Procedure: After 48 hours, drugs were withdrawn and allowed to grow in fresh medium for determination of cytotoxicity by clonogenic assay. Data presented are the mean±SE of three different estimations. […] Data presented are the mean+/−SE of three different estimations.

[2] = system: T47D and MCF7 human breast cancer cell lines; assay: Cytotoxicity by clonogenic assay (FIG. 3 legend), T47D and MCF7 stated jointly; assay type: cell-based; settings: one value for both, read-out: IC50, agent alone
[3] = system: MCF7, T47D, MDA-MB-231 and MDA-MB-468 human breast cancer cell lines; assay: Clonogenic assay (Example 5, FIG. 8), four breast cancer cell lines stated jointly; assay type: cell-based; settings: one value for all cell lines of FIG. 8, read-out: IC50, agent alone
Procedure: (§1) After 48 hours, drugs were withdrawn and allowed to grow in fresh medium for determination of cytotoxicity by clonogenic assay. The data presented are the mean±SE of three different estimations.
(§2) To test this hypothesis, the IC50 of TMZ in four human breast cancer cell lines was determined using a clonogenic assay (Vachai et al., Nat. Proto. 3: 1122-1116, 2006). The cell lines used were MCF7, T47D (both ER/PR/HER2-positive), MDA-MB-231 and MDA-MB-468 (both triple-negative).

MCF7 breast cancer cells = assay: Sulforhodamine B (SRB) colorimetric cytotoxicity assay, MCF7; settings: for IC50: read-out: IC50 (cytotoxicity), agent alone
Procedure: After 48 hours, cells were harvested and processed for cytotoxicity determination by clonogenic assay. Data presented are the mean±SE of three different estimations.
The IC50 (the drug concentration needed to prevent cell proliferation by 50%) of TMZ was determined using a sulforhodamine B (SRB) colorimetric assay. This assay relies on the ability of SRB to bind the protein components of cells that have been fixed to tissue culture plates by trichloroacetic acid (TCA) (Vachai V, Kirtikara K. Sulforhodamine B colorimetric assay for cytotoxicity screening. Nat. Proto. 3: 1122-1116, 2006). MCF7 and T47D cells were seeded in 96-well plates at a density of 500 cells per well. After 24 hours, while the cells were in the log phase of cell growth, the cells were treated with different concentrations of TMZ (1-1000 μM) for 48 hours. […] The cells were subsequently fixed with 10% (w/v) of tricholoroacetic acid, washed with double distilled water, and stained with 0.4% SRB. Cells were then repeatedly washed with 1% (v/v) of acetic acid to remove the unbound dye. The protein bound dye was dissolved in 10 mM Tris-base solution (pH 10.5). The developed color was measured at 564 nm. The percentage of cell survival as a function of drug concentration was then plotted to determine the IC50 value.

T47D breast cancer cells = assay: Sulforhodamine B (SRB) colorimetric cytotoxicity assay, T47D; assay type: cell-based, human; settings: for IC50: read-out: IC50 (cytotoxicity), agent alone
Procedure: Data are the mean±SE of three different estimations.
The developed color was measured at 564 nm.

[4] = system: MDA-MB-468 breast cancer cells; assay: Sulforhodamine B (SRB) colorimetric cytotoxicity assay, MDA-MB-468; settings: for IC50: read-out: IC50 (cytotoxicity), agent alone
[5] = system: MDA-MB-231 breast cancer cells; assay: Sulforhodamine B (SRB) colorimetric cytotoxicity assay, MDA-MB-231; settings: for IC50: read-out: IC50 (cytotoxicity), agent alone
Pol-β = Pol-β (Homo sapiens, UniProt P06746); assay: In vitro base excision repair (BER) assay with 32P-U-DNA substrate; assay type: biochemical; settings: dose-dependent manner (FIG. 2B)
From the text: The reaction conditions are described below. […] Data are representative of three different experiments.
An assay was developed that permits in vitro analysis of BER as described in FIG. 2A.

MDA-MB-468 cells = assay: Clonogenic assay (Example 5, FIG. 8), MDA-MB-468; assay type: cell-based; settings: Homo sapiens, 48 hours, then fresh medium, read-out: IC50 of TMZ alone or in the named combination
Procedure: as §1, §2

MDA-MB-231 cells = assay: Clonogenic assay (Example 5, FIG. 8), MDA-MB-231; assay type: cell-based; settings: Homo sapiens, 48 hours, then fresh medium, read-out: IC50 of TMZ alone or in the named combination
Procedure: as §1, §2

T47D cells = assay: Clonogenic assay (Example 5, FIG. 8), T47D; assay type: cell-based; settings: Homo sapiens, 48 hours, then fresh medium, read-out: IC50 of TMZ alone or in the named combination
Procedure: as §1, §2

MCF7 cells = assay: Clonogenic assay (Example 5, FIG. 8), MCF7; assay type: cell-based; settings: Homo sapiens, 48 hours, then fresh medium, read-out: IC50 of TMZ alone or in the named combination
Procedure: as §1, §2

SMILES: Cc1cc(S(=O)(=O)Nc2n[nH]c(Nc3ccc(Cl)cc3)n2)c(S)cc1Cl [NSC-666715, Benzosulfonamide, 4-chloro-N-[5-[(4-chlorophenyl)amino]1H-1,2,4-triazol-3-yl]-2-mercapto-5-methyl-(9Cl)]
- IC50 [1]: ~100 µM
- IC50 [2]: ~100 µM
- IC50 [3]: 100 µM

SMILES: Nc1nc(OCc2ccccc2)c2nc[nH]c2n1 [BG, O^6-benzylguanine]
- IC50 [1]: ~75 µM
- IC50 (MCF7 breast cancer cells; MCF7 cells, 48 hours): ~91 µM
- IC50 [2]: ~75 µM
- IC50 (T47D breast cancer cells; T47D cells, 48 hours): ~149 µM
- IC50 ([4]; MDA-MB-468 cells, 48 hours): ~100 µM
- IC50 ([5]; MDA-MB-231 cells, 48 hours): ~77 µM

SMILES: Nc1cc(I)n([C@H]2C[C@H](O)[C@@H](COP(=O)(O)O)O2)c(=O)n1 [NSC-124854, 5′-cytidylic acid, 2′-deoxy-6-iodo-(9CI)]
- strand-displacement synthesis (Pol-β; 32P-U-DNA substrate, in the presence of Fen-1): blocked
- Pol-β-mediated 1-nt incorporation (Pol-β; 32P-U-DNA substrate): blocked
- complete repair of 32P-U-DNA by the SN-BER pathway (Pol-β; with DNA ligase I): blocked
- complete repair of 32P-U-DNA by the LP-BER pathway (Pol-β; with Fen-1 and DNA ligase I): blocked

SMILES: COc1cc(/C=C/C(=O)CC(=O)/C=C/c2ccc(O)c(OC)c2)ccc1O [curcumin, (1E,6E)-1,7-bis(4-hydroxy-3-methoxy-phenyl)hepta-1,6-diene-3,5-dione]
- IC50 ([3]; Homo sapiens): 5 µM

SMILES: Cn1nnc2c(C(N)=O)ncn2c1=O [TMZ, Temozolomide]
- IC50 (MDA-MB-468 cells): 298 µM
- IC50 (MDA-MB-231 cells): 334 µM
- IC50 (MCF7 breast cancer cells; Homo sapiens, MCF7, 48 h): 303 µM
- reduction of the IC50 of TMZ (MCF7 breast cancer cells; MCF7 cells, TMZ with BG (2.5 μM)): about 4 fold
- reduction of the IC50 of TMZ (MCF7 breast cancer cells; MCF7 cells, TMZ with NSC-666715 (15 μM)): about 1.5 fold
- reduction of the IC50 of TMZ (MCF7 breast cancer cells; MCF7 cells, TMZ with both BG (2.5 μM) and NSC-666715 (15 μM)): about 7 fold
- reduction in the IC50 of TMZ (MCF7 breast cancer cells; NSC-666715 and O6-benzylguanine in combination with temozolomide, cell line not stated at this place (figure matches MCF7)): 7 fold
- IC50 (T47D cells): 334 µM
- IC50 (MCF7 cells): 331 µM
- IC50 (T47D breast cancer cells; Homo sapiens, T47D, 48 h): 303 µM
- reduction of the IC50 of TMZ (T47D breast cancer cells; T47D cells, TMZ with BG (2.5 μM)): about 4 fold
- reduction of the IC50 of TMZ (T47D breast cancer cells; T47D cells, TMZ with NSC-666715 (15 μM)): about 1.1 fold
- reduction of the IC50 of TMZ (T47D breast cancer cells; T47D cells, TMZ with both BG (2.5 μM) and NSC-666715 (15 μM)): about 8 fold
- IC50 ([4]; Homo sapiens, MDA-MB-468, 48 h): 316 µM
- reduction of the IC50 of TMZ ([4]; MDA-MB-468 cells, TMZ with BG (2.5 μM)): about 6 fold
- reduction of the IC50 of TMZ ([4]; MDA-MB-468 cells, TMZ with NSC-666715 (15 μM)): about 0.1 fold
- reduction of the IC50 of TMZ ([4]; MDA-MB-468 cells, TMZ with both BG (2.5 μM) and NSC-666715 (15 μM)): about 15 fold
- IC50 ([5]; Homo sapiens, MDA-MB-231, 48 h): 344 µM
- reduction of the IC50 of TMZ ([5]; MDA-MB-231 cells, TMZ with BG (2.5 μM)): about 2.8 fold
- reduction of the IC50 of TMZ ([5]; MDA-MB-231 cells, TMZ with NSC-666715 (15 μM)): about 1.5 fold
- reduction of the IC50 of TMZ ([5]; MDA-MB-231 cells, TMZ with both BG (2.5 μM) and NSC-666715 (15 μM)): about 6.6 fold
